In patent US11649238B2, “Substituted pyrazolo[1,5-a]pyrimidines as PI4K inhibitors” (GLAXOSMITHKLINE INTELLECTUAL PROPERTY DEVELOPMENT LIMITED, priority 2018, dated 2023):

Each compound was assayed against T1, human PI4KIII-beta 13-828 (D316-330) (Homo sapiens, UniProt Q9UBF8) (assay: PI4 KB Activity Assay (ADP-GLO Kinase assay)). Details: 1 mM ATP, 60 μM phosphatidylinositol, 3 hours at room temperature; read-out: mean pIC50 (converted).
T1 construct: human PI4KIII-beta 13-828 (D316-330)
Type: biochemical
Description: The in vitro inhibition of human PI4KIII-beta 13-828 (D316-330) activity was determined by using the ADP-GLO Kinase assay kit from Promega. Inhibitors were dissolved in 100% DMSO at a concentration of 1 mM. Dilutions were prepared in 100% DMSO using a 1 in 3 serial step dilution. A 60 nL stamp from an 11-point titration was transferred to a white low volume 384 well Greiner assay plate ensuring a final DMSO concentration of 1% across the plate and a top final concentration of inhibitor of 10 μM. The PI4KIII-beta assay contained 25 mM Hepes pH 7.5 (NaOH), 10 mM MgCl2, 0.5 mM EGTA, 0.1% Triton X-100, 2 mM TCEP, and 0.1 mg/ml BSA, 1 mM ATP, 60 μM phosphatidylinositol, and 1.5 nM human PI4K-beta 13-828 (D316-330) in a total volume of 6 μL. The assay was initiated with the addition of enzyme, covered, and incubated at room temperature for 3 hours. The assays were stopped with the addition of 6 μl ADP-GLO Reagent containing 0.1% CHAPS to deplete the unconsumed ATP. The plates were incubated at room temperature for 60 min and then 12 μl of the Kinase Detection Reagent containing 0.1% CHAPS was added to convert ADP to ATP and introduce luciferase and luciferin. After 40 min incubation at room temperature the luminescent signal was read on a BMG Labtech PHERAstar FS with the following settings; Gain 3600, Focal height 13.7 mm, measurement interval time 1 s, Settling time 0.2 s. The inhibitory effect of the PI4K-beta activity of the compounds was evaluated by the IC50 of the response relative to the high, no compound, and low, no enzyme, controls by fitting to the four parameter dose response question.

T1 sequence (Q9UBF8 1-801 isoform Q9UBF8-2): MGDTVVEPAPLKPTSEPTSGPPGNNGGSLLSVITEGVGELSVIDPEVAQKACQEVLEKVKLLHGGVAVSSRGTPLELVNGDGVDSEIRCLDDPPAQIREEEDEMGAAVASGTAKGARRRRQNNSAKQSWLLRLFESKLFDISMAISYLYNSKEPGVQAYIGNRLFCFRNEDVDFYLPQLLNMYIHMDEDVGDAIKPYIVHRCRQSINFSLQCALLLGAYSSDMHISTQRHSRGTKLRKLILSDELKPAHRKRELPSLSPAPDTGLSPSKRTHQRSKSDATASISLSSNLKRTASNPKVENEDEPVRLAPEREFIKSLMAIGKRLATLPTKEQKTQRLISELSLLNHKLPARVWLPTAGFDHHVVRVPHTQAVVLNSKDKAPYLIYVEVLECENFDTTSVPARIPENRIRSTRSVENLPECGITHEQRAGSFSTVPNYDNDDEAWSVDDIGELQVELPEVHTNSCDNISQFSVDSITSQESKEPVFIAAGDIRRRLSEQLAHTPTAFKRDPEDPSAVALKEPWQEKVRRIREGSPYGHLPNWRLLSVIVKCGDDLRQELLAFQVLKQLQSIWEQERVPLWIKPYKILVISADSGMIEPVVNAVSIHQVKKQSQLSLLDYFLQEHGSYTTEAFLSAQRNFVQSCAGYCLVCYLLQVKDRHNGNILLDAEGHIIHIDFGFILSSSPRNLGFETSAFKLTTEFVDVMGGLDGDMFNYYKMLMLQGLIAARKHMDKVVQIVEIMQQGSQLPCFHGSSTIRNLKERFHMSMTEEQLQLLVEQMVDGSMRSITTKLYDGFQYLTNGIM

How did the IC50 turn out when `COc1ccc(-c2c(C)nn3c(NCc4cccc(-c5nccn5C)c4)cc(C(C)(C)O)nc23)cc1S(=O)(=O)CCO` [Compound 6, 2-(3-(3-((2-Hydroxyethyl)sulfonyl)-4-methoxyphenyl)-2-methyl-7-((3-(1-methyl-1H-imidazol-2-yl)benzyl)amino)pyrazolo[1,5-a]pyrimidin-5-yl)propan-2-ol] was run?
Its IC50 is no more than 3.98 nM.

How did the IC50 turn out when `Cc1nn2c(NCc3cccc(-c4nccn4C)c3)cc(C(C)O)nc2c1-c1ccc(Cl)c(C(=O)N2CC[C@H](O)C2)c1` (stereo partly drawn) [Compound 14] was run?
Its IC50 is no more than 3.98 nM.

`Cc1nn2c(NCc3cccc(-c4nccn4C)c3)cc(C(C)(C)O)nc2c1-c1ccc(Cl)c(C(=O)N2CCC[C@@H]2CO)c1` [Compound 24] was tested. Which IC50 did it give?
Its IC50 is no more than 3.98 nM.

`COc1ccc(-c2c(C)nn3c(NCc4cccc(-c5nccn5C)c4)cc(C(C)(C)O)nc23)cc1C(=O)N(C)[C@@H](C)CO` [Compound 20, (S)—N-(1-hydroxypropan-2-yl)-5-(5-(2-hydroxypropan-2-yl)-2-methyl-7-((3-(1-methyl-1H-imidazol-2-yl)benzyl)amino)pyrazolo[1,5-a]pyrimidin-3-yl)-2-methoxy-N-methylbenzamide] was tested. Which IC50 did it give?
The IC50 was no more than 3.98 nM.

`CCC(O)c1cc(NCc2cccc(-c3nccn3C)c2)n2nc(C)c(-c3ccc(C)c(C(=O)N(C)[C@@H](C)CO)c3)c2n1` (single isomer, unassigned) [Compound 80] was tested. Which IC50 did it give?
The IC50 was no more than 3.98 nM.

Which IC50 does the source give for `COc1ccc(-c2c(C)nn3c(NCc4cccc(-c5nccn5C)c4)cc(C(C)(C)O)nc23)cc1C(=O)N1CCC[C@@H]1CO` [Compound 36, (R)-(2-(hydroxymethyl)pyrrolidin-1-yl)(5-(5-(2-hydroxypropan-2-yl)-2-methyl-7-((3-(1-methyl-1H-imidazol-2-yl)benzyl)amino)pyrazolo[1,5-a]pyrimidin-3-yl)-2-methoxyphenyl)methanone] here?
The IC50 was no more than 3.98 nM.

How did the IC50 turn out when `CCN(CCO)C(=O)c1cc(-c2c(C)nn3c(NCc4cccc(-c5nccn5C)c4)cc(C(C)O)nc23)ccc1Cl` (stereo not drawn) [Compound 15, 2-chloro-N-ethyl-N-(2-hydroxyethyl)-5-(5-(1-hydroxyethyl)-2-methyl-7-((3-(1-methyl-1H-imidazol-2-yl)benzyl)amino)pyrazolo[1,5-a]pyrimidin-3-yl)benzamide] was run?
The IC50 was no more than 3.98 nM.

How did the IC50 turn out when `COc1ccc(-c2c(C)nn3c(NCc4cccc(-n5cccn5)c4)cc(C(C)(C)O)nc23)cc1C(=O)N1CC[C@H](O)C1` [Compound 52] was run?
The IC50 was no more than 3.98 nM.

How did the IC50 turn out when `Cc1nn2c(NCc3cccc(-n4cccn4)c3)cc(C(C)(C)O)nc2c1-c1ccc(Cl)c(C(=O)N(C)CCO)c1` [Compound 48] was run?
Its IC50 is no more than 3.98 nM.

`CCC(O)c1cc(NCc2cccc(-c3nccn3C)c2)n2nc(C)c(-c3ccc(C)c(C(=O)N(C)CCCO)c3)c2n1` (single isomer, unassigned) [Compound 69, N-(3-Hydroxypropyl)-5-(5-(1-hydroxypropyl)-2-methyl-7-((3-(1-methyl-1H-imidazol-2-yl)benzyl)amino)pyrazolo[1,5-a]pyrimidin-3-yl)-N,2-dimethylbenzamide] was tested. Which IC50 did it give?
Its IC50 is no more than 3.98 nM.

How did the IC50 turn out when `CCC(O)(CC)c1cc(NCc2cccc(-c3nccn3C)c2)n2nc(C)c(-c3ccc(C)c(C(=O)N(C)CCCO)c3)c2n1` [Compound 68, 5-(5-(3-Hydroxypentan-3-yl)-2-methyl-7-((3-(1-methyl-1H-imidazol-2-yl)benzyl)amino)pyrazolo[1,5-a]pyrimidin3-yl)-N-(3-hydroxypropyl)-N,2-dimethylbenzamide] was run?
Its IC50 is no more than 3.98 nM.

With `CCC(CO)c1cc(NCc2cccc(-c3nccn3C)c2)n2nc(C)c(-c3ccc(C)c(C(=O)N(C)CCCO)c3)c2n1` (single isomer, unassigned) [Compound 66, 5-(5-(1-Hydroxybutan-2-yl)-2-methyl-7-((3-(1-methyl-1H-imidazol-2-yl)benzyl)amino)pyrazolo[1,5-a]pyrimidin-3-yl)-N-(3-hydroxypropyl)-N,2-dimethylbenzamide] as the compound, how does the IC50 read?
Its IC50 is no more than 3.98 nM.

`COc1ccc(-c2c(C)nn3c(NCc4cccc(-c5nccn5C)c4)cc(C(O)C(C)C)nc23)cc1S(=O)(=O)CCO` (stereo not drawn) [Compound 5] was tested. Which IC50 did it give?
Its IC50 is no more than 3.98 nM.

For `Cc1ccc(-c2c(C)nn3c(NCc4cccc(-c5nccn5C)c4)cc(C(C)(C)O)nc23)cc1C(=O)N(C)C(C)CO` (stereo not drawn) [Compound 40], which IC50 is on record?
Its IC50 is no more than 3.98 nM.

`Cc1ccc(-c2c(C)nn3c(NCc4cccc(-c5nccn5C)c4)cc(C(C)(C)O)nc23)cc1C(=O)N1CCC(C)(O)C1` (stereo not drawn) [Compound 31] was tested. Which IC50 did it give?
The IC50 was no more than 3.98 nM.

For `CCC(CO)c1cc(NCc2cccc(-c3nccn3C)c2)n2nc(C)c(-c3ccc(C)c(C(=O)N(C)CCCO)c3)c2n1` (stereo not drawn) [Compound 65, 5-(5-(1-Hydroxybutan-2-yl)-2-methyl-7-((3-(1-methyl-1H-imidazol-2-yl)benzyl)amino)pyrazolo[1,5-a]pyrimidin-3-yl)-N-(3-hydroxypropyl)-N,2-dimethylbenzamide], which IC50 is on record?
The IC50 was no more than 3.98 nM.

`CCN(CCO)C(=O)c1cc(-c2c(C)nn3c(NCc4cccc(-c5nccn5C)c4)cc(C(C)O)nc23)ccc1OC` (stereo not drawn) [Compound 11] was tested. Which IC50 did it give?
Its IC50 is no more than 3.98 nM.

For `Cc1nn2c(NCc3cccc(-c4nccn4C)c3)cc(C(C)(C)O)nc2c1-c1ccc(Cl)c(C(=O)N(C)CCO)c1` [Compound 37, 2-Chloro-N-(2-hydroxyethyl)-5-(5-(2-hydroxypropan-2-yl)-2-methyl-7-((3-(1-methyl-1H-imidazol-2-yl)benzyl)amino)pyrazolo[1,5-a]pyrimidin-3-yl)-N-methylbenzamide], which IC50 is on record?
Its IC50 is no more than 3.98 nM.

`Cc1ccc(-c2c(C)nn3c(NCc4cccc(-c5nccn5C)c4)cc(C(C)(C)CO)nc23)cc1C(=O)N(C)CCCO` [Compound 55, 5-(5-(1-Hydroxy-2-methylpropan-2-yl)-2-methyl-7-((3-(1-methyl-1H-imidazol-2-yl)benzyl)amino)pyrazolo[1,5-a]pyrimidin-3-yl)-N-(3-hydroxypropyl)-N,2-dimethylbenzamide] was tested. Which IC50 did it give?
The IC50 was no more than 3.98 nM.

With `COc1ccc(-c2c(C)nn3c(NCc4cccc(-n5cccn5)c4)cc(C(C)(C)O)nc23)cc1C(=O)N(C)CCCO` [Compound 33] as the compound, how does the IC50 read?
Its IC50 is no more than 3.98 nM.

For `CCC(O)c1cc(NCc2cccc(-c3nccn3C)c2)n2nc(C)c(-c3ccc(OC)c(S(=O)(=O)CCO)c3)c2n1` (stereo not drawn) [Compound 3], which IC50 is on record?
The IC50 was no more than 3.98 nM.

Each compound was assayed on human rhinovirus Type A Strain 16 (HRVA16) in HeLa Ohio cells (assay: Cytopathic Effect (CPE) Assay, ATP-depletion in infected HeLa Ohio cells). Details: Human rhinovirus sp., HRVA16, HeLa, 48 h, HRVA16 at MOI of 1, 33° C. for 2 days, CellTiter-Glo, read-out: mean pIC50 (converted).
Type: cell-based
Description: c) Cytopathic Effect (CPE) Assay Protocol
The in vitro inhibition of PI4 KB activity was determined by analysis of the inhibition of ATP-depletion in HeLa Ohio cells in response to infection with human rhinovirus Type A Strain 16 (HRVA16). ATP levels were determined using CellTiter-GLO reagent from Promega. Compounds that inhibit PI4 KB are also potent inhibitors of human rhinoviruses and are able to protect HeLa Ohio cells from CPE induced by viral infection and replication. Protected cells remain viable following viral infection and therefore have greater ATP levels.
Compounds were dissolved in 100% DMSO to a concentration of 3 mM and subsequent dilutions were prepared in 100% DMSO using a 1:3 serial step dilution. A 0.5 μL stamp from an 10-point titration was transferred to a white 96 well Greiner tissue culture flat bottom plate (655083). A 0.5 μL stamp of 100% DMSO was stamped into columns 11 and 12 of the plate, ensuring a final assay DMSO concentration of 0.33% across the plate and a compound top final assay concentration of 10 μM.
HeLa Ohio cells were cultured at 37° C., 5% CO2 in media (DMEM supplemented with 10% Australian origin foetal bovine serum and 2 mM glutamax). Cells were passaged when confluency reached >80%. For the assay, cells were grown to 80-90% confluency before detachment.
Cells were detached for the assay by washing with PBS and detached using 3 mL TrypLE Express for […] at 37° C. Detached cells were mixed with 7 mL of media and centrifuged at 300 g for 5 min. The cell pellet was resuspended in 50 mL media and counted on a Beckman Coulter ViCell. Cells were diluted to 6.6×10^4 cells/mL and some of the cell volume was removed into a new tube to be used as a column 12 control. HRVA16 stock was added to the remaining cell suspension at the appropriate dilution for the virus stock to achieve an MOI of 1.
150 μL of the cell+virus suspension was added per well to columns 1-11 using a Multidrop Combi. 150 μL of the separate cell suspension was added per well to columns 12 using a multichannel pipette. Assay plates were sealed and incubated at 33° C., 5% CO2 for 2 days. After 2 days, assay plates were removed from the incubator and allowed to equilibrate to room temperature. 60 μL of CellTiter-Glo reagent was added to all wells using a Thermo Scientific Multidrop Combi. Plates were incubated at room temperature for 20 min before reading on an a Perkin Elmer Envision (Settings: Gripper height 2.5, Fixed measurement height (mm) 6.5, Distance between plate and detector 0, Measurement time (s) 0.1, Glow (ct2) correction factor (0%)).
The inhibitory effect of the compounds on the PI4 KB activity was evaluated by the IC50 of the response relative to the high (no virus, column 12) and low (virus+no inhibitor, column 11) controls by fitting to a four parameter dose response equation.

With `Cc1ccc(-c2c(C)nn3c(NCc4cccc(-c5nccn5C)c4)cc(C(C)O)nc23)cc1C(=O)N(C)CCCO` (stereo not drawn) [Compound 13] as the compound, how does the IC50 read?
The IC50 was no more than 25.1 nM.

`COc1ccc(-c2c(C)nn3c(NCc4cccc(-c5nccn5C)c4)cc(C(C)(C)O)nc23)cc1C(=O)N1CC[C@H](O)C1` [Compound 8, (S)-(5-(5-(2-Hydroxypropan-2-yl)-2-methyl-7-((3-(1-methyl-1H-imidazol-2-yl)benzyl)amino)pyrazolo[1,5-a]pyrimidin-3-yl)-2-methoxyphenyl)(3-hydroxypyrrolidin-1-yl)methanone] was tested. Which IC50 did it give?
The IC50 was no more than 25.1 nM.

`COc1ccc(-c2c(C)nn3c(NCc4cccc(-c5nccn5C)c4)cc(C(C)(C)O)nc23)cc1C(=O)N1CCOC[C@@H]1C` [Compound 30] was tested. Which IC50 did it give?
Its IC50 is no more than 25.1 nM.
